Assays:
ABUTH [1] = assay: Pre-emergence herbicidal action against ABUTH; assay type: in vivo, Abutilon theophrasti
Outline: (§1)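 Seeds sown in sandy loam, soil-covered; compound sprayed on soil surface pre-emergence. Application: WP/EC, 600–800 l/ha, 0.2% wetting agent. Readout: visual % damage at 3 weeks.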

ALOMY [2] = assay: Pre-emergence herbicidal action against ALOMY; assay type: in vivo, Alopecurus myosuroides
Outline: as §1

AMARE [3] = assay: Pre-emergence herbicidal action against AMARE; assay type: in vivo, Amaranthus retroflexus
Outline: as §1

AVEFA [4] = assay: Pre-emergence herbicidal action against AVEFA; assay type: in vivo, Avena fatua
Outline: as §1

ECHCG [5] = assay: Pre-emergence herbicidal action against ECHCG; assay type: in vivo, Echinochloa crus-galli; details: 80 g/ha
Outline: as §1

LOLRI = assay: Pre-emergence herbicidal action against LOLRI; assay type: in vivo, Lolium rigidum; details: 80 g/ha
Outline: as §1

MATIN [6] = assay: Pre-emergence herbicidal action against MATIN; assay type: in vivo, Matricaria inodora
Outline: as §1

PHBPU [7] = assay: Pre-emergence herbicidal action against PHBPU; assay type: in vivo, Pharbitis purpurea
Outline: as §1

POLCO [8] = assay: Pre-emergence herbicidal action against POLCO; assay type: in vivo, Polygonum convolvulus; details: dosage 80 g/ha
Outline: as §1

SETVI [9] = assay: Pre-emergence herbicidal action against SETVI; assay type: in vivo, Setaria viridis
Outline: as §1

VIOTR [10] = assay: Pre-emergence herbicidal action against VIOTR; assay type: in vivo, Viola tricolor
Outline: as §1

DIGSA [11] = assay: Pre-emergence herbicidal action against DIGSA; assay type: in vivo, Digitaria sanguinalis
Outline: as §1

ABUTH [12] = assay: Post-emergence herbicidal action against ABUTH; assay type: in vivo, Abutilon theophrasti; details: dosage 20 g/ha, visual assessment about 3 weeks after treatment vs untreated controls
Outline: (§2)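 Sandy loam, greenhouse; treatment 2–3 weeks after sowing, one-leaf stage. Aqueous suspension or emulsion from WP/EC sprayed on foliage (600–800 l/ha, 0.2% wetting agent). Readout: visual % action, ~3 weeks.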

ALOMY [13] = assay: Post-emergence herbicidal action against ALOMY; assay type: in vivo, Alopecurus myosuroides; details: visual assessment about 3 weeks after treatment vs untreated controls
Outline: as §2

AMARE [14] = assay: Post-emergence herbicidal action against AMARE; assay type: in vivo, Amaranthus retroflexus; details: 20 g/ha, visual assessment about 3 weeks after treatment, 100% = plants have died, 0% = like control plants
Outline: as §2

AVEFA [15] = assay: Post-emergence herbicidal action against AVEFA; assay type: in vivo, Avena fatua; details: 20 g/ha, visual assessment about 3 weeks after treatment, 100% = plants have died, 0% = like control plants
Outline: as §2

ECHCG [16] = assay: Post-emergence herbicidal action against ECHCG; assay type: in vivo, Echinochloa crus-galli
Outline: as §2

PHBPU [17] = assay: Post-emergence herbicidal action against PHBPU; assay type: in vivo, Pharbitis purpurea
Outline: as §2

POLCO [18] = assay: Post-emergence herbicidal action against POLCO; assay type: in vivo, Polygonum convolvulus; details: dosage 20 g/ha
Outline: as §2

SETVI [19] = assay: Post-emergence herbicidal action against SETVI; assay type: in vivo, Setaria viridis
Outline: as §2

VERPE [20] = assay: Post-emergence herbicidal action against VERPE; assay type: in vivo, Veronica persica; details: 20 g/ha
Outline: as §2

VIOTR [21] = assay: Post-emergence herbicidal action against VIOTR; assay type: in vivo, Viola tricolor
Outline: as §2

DIGSA [22] = assay: Post-emergence herbicidal action against DIGSA; assay type: in vivo, Digitaria sanguinalis
Outline: as §2

VERPE [23] = assay: Pre-emergence herbicidal action against VERPE; assay type: in vivo, Veronica persica; details: Veronica persica, 504 h, dosage 80 g/ha
Outline: as §1

MATIN [24] = assay: Post-emergence herbicidal action against MATIN; assay type: in vivo, Matricaria inodora; details: Tripleurospermum inodorum, 504 h
Outline: as §2

[25] = 80 g/ha, scored visually after 3 weeks vs untreated controls (100% = plants have died, 0% = like control plants)
[26] = 20 g/ha, scored visually after 3 weeks, 100% = plants have died, 0% = like control plants

Cn1nnnc1NC(=O)c1ccc(C(F)(F)F)c(C(=O)NCC(F)F)c1Br [Example 1-212] was tested, and the “Pre-emergence action against ABUTH (herbicidal activity)” value (ABUTH [1]; [25]) was 100%, the “Pre-emergence action against ABUTH (herbicidal activity in percent)” value (ABUTH [1]; dosage 20 g/ha, scored visually after 3 weeks vs untreated controls, 100% = plants have died, 0% = like control plants) was 80% and the “Pre-emergence action against ALOMY” value (ALOMY [2]; [26]) was 100%. For the same compound, the “Pre-emergence action against ALOMY (herbicidal activity)” value (ALOMY [2]; 80 g/ha, pre-emergence, scored visually after 3 weeks vs untreated controls (100% = plants have died, 0% = like control plants)) was 100%, the “Pre-emergence action against AMARE in %” value (AMARE [3]; 20 g/ha, scored visually after 3 weeks vs untreated controls, 100% = plants have died, 0% = like control plants) was 100% and the “Pre-emergence action against AMARE in %” value (AMARE [3]; [25]) was 100%. For the same compound, the “Pre-emergence action against AVEFA” value (AVEFA [4]; [26]) was 80%, the “Pre-emergence action against AVEFA in %” value (AVEFA [4]; 80 g/ha, pre-emergence) was 90% and the “Pre-emergence action against ECHCG in %” value (ECHCG [5]) was 100%. For the same compound, the “Pre-emergence action against LOLRI in %” value (LOLRI) was 80%, the “Pre-emergence action against MATIN in %” value (MATIN [6]; dosage 20 g/ha) was 90% and the “Pre-emergence action against MATIN in %” value (MATIN [6]; dosage 80 g/ha) was 100%. For the same compound, the “Pre-emergence action against PHBPU in %” value (PHBPU [7]; dosage 20 g/ha) was 80%, the “Pre-emergence action against PHBPU in %” value (PHBPU [7]; dosage 80 g/ha) was 80% and the “Pre-emergence action against POLCO in %” value (POLCO [8]) was 80%. For the same compound, the “Pre-emergence action against SETVI in %” value (SETVI [9]; dosage 20 g/ha) was 80%, the “Pre-emergence action against SETVI in %” value (SETVI [9]; dosage 80 g/ha) was 100% and the “Pre-emergence action against VIOTR in %” value (VIOTR [10]; dosage 20 g/ha) was 100%. The “Pre-emergence action against VIOTR in %” value (VIOTR [10]; dosage 80 g/ha) was 100%, the “Pre-emergence action against DIGSA in %” value (DIGSA [11]; dosage 20 g/ha) was 100% and the “Pre-emergence action against DIGSA in %” value (DIGSA [11]; dosage 80 g/ha) was 100%. For the same compound, the “Post-emergence action against ABUTH in %” value (ABUTH [12]) was 80%, the “Post-emergence action against ALOMY in %” value (ALOMY [13]; dosage 5 g/ha) was 80% and the “Post-emergence action against ALOMY in %” value (ALOMY [13]; dosage 20 g/ha) was 90%. For the same compound, the “Post-emergence action at 20 g/ha against AMARE in %” value (AMARE [14]) was 100%, the “Post-emergence action at 20 g/ha against AVEFA in %” value (AVEFA [15]) was 80% and the “Post-emergence action against ECHCG in %” value (ECHCG [16]; dosage 5 g/ha) was 80%. For the same compound, the “Post-emergence action against ECHCG in %” value (ECHCG [16]; dosage 20 g/ha) was 80%, the “Post-emergence action against PHBPU in %” value (PHBPU [17]; dosage 5 g/ha) was 80% and the “Post-emergence action against PHBPU in %” value (PHBPU [17]; dosage 20 g/ha) was 90%. For the same compound, the “Post-emergence action against POLCO in %” value (POLCO [18]) was 100%, the “Post-emergence action against SETVI in %” value (SETVI [19]; dosage 5 g/ha) was 80% and the “Post-emergence action against SETVI in %” value (SETVI [19]; dosage 20 g/ha) was 90%. For the same compound, the “Post-emergence action against VERPE in %” value (VERPE [20]) was 80%, the “Post-emergence action against VIOTR in %” value (VIOTR [21]; 5 g/ha) was 80% and the “Post-emergence action against VIOTR in %” value (VIOTR [21]; 20 g/ha) was 90%. For the same compound, the “Post-emergence action against DIGSA in %” value (DIGSA [22]; 5 g/ha) was 90% and the “Post-emergence action against DIGSA” value (DIGSA [22]; 20 g/ha) was 100%.
Compound CCn1nnnc1NC(=O)c1ccc(Br)c(C(=O)NC2CC2)c1Cl [Example 2-179] has a pest or weed control at 80 g/ha (ABUTH [1]; Abutilon theophrasti, 504 h, 80 g/ha, scored visually after 3 weeks vs untreated controls (100% = plants have died, 0% = like control plants)) of 100%, a pest or weed control at 80 g/ha (ALOMY [2]; Alopecurus myosuroides, 504 h, 80 g/ha, pre-emergence, scored visually after 3 weeks vs untreated controls (100% = plants have died, 0% = like control plants)) of 100% and a pest or weed control at 20 g/ha (ALOMY [2]; Alopecurus myosuroides, pre-emergence, 504 h, 20 g/ha, scored visually after 3 weeks, 100% = plants have died, 0% = like control plants) of 80%. It also gave a pest or weed control at 20 g/ha (AMARE [3]; Amaranthus retroflexus, 504 h, 20 g/ha, scored visually after 3 weeks vs untreated controls, 100% = plants have died, 0% = like control plants) of 100%, a pest or weed control at 80 g/ha (AMARE [3]; Amaranthus retroflexus, 504 h, 80 g/ha, scored visually after 3 weeks vs untreated controls, 100% = plants have died, 0% = like control plants) of 100% and a pest or weed control at 80 g/ha (AVEFA [4]; Avena fatua, 504 h, 80 g/ha, pre-emergence) of 100%. It also gave a pest or weed control at 80 g/ha (ECHCG [5]; Echinochloa crus-galli, 504 h) of 100%, a pest or weed control at 80 g/ha (LOLRI; Lolium rigidum, 504 h) of 80% and a pest or weed control at 20 g/ha (MATIN [6]; Tripleurospermum inodorum, 504 h, dosage 20 g/ha) of 100%. It also gave a pest or weed control at 80 g/ha (MATIN [6]; Tripleurospermum inodorum, 504 h, dosage 80 g/ha) of 100%, a pest or weed control at 80 g/ha (PHBPU [7]; Ipomoea purpurea, 504 h, dosage 80 g/ha) of 80% and a pest or weed control at 80 g/ha (SETVI [9]; Setaria viridis, 504 h, dosage 80 g/ha) of 100%. The pest or weed control at 80 g/ha (VERPE [23]) was 90%, the pest or weed control at 20 g/ha (VIOTR [10]; Viola tricolor, 504 h, dosage 20 g/ha) was 100% and the pest or weed control at 80 g/ha (VIOTR [10]; Viola tricolor, 504 h, dosage 80 g/ha) was 100%. The pest or weed control at 20 g/ha (DIGSA [11]; Digitaria sanguinalis, 504 h, dosage 20 g/ha) was 100%, the pest or weed control at 80 g/ha (DIGSA [11]; Digitaria sanguinalis, 504 h, dosage 80 g/ha) was 100% and the pest or weed control at 20 g/ha (ABUTH [12]; Abutilon theophrasti, 504 h) was 90%. The pest or weed control at 20 g/ha (ALOMY [13]; Alopecurus myosuroides, 504 h, dosage 20 g/ha) was 90%, the pest or weed control at 20 g/ha (AMARE [14]; Amaranthus retroflexus, 504 h) was 100% and the pest or weed control at 20 g/ha (ECHCG [16]; Echinochloa crus-galli, 504 h, dosage 20 g/ha) was 80%. For the same compound, the pest or weed control at 5 g/ha (MATIN [24]; dosage 5 g/ha) was 80%, the pest or weed control at 20 g/ha (MATIN [24]; dosage 20 g/ha) was 90% and the pest or weed control at 20 g/ha (PHBPU [17]; Ipomoea purpurea, 504 h, dosage 20 g/ha) was 80%. For the same compound, the pest or weed control at 20 g/ha (POLCO [18]; Fallopia convolvulus, 504 h) was 90%, the pest or weed control at 5 g/ha (SETVI [19]; Setaria viridis, 504 h, dosage 5 g/ha) was 90% and the pest or weed control at 20 g/ha (SETVI [19]; Setaria viridis, 504 h, dosage 20 g/ha) was 90%. The pest or weed control at 5 g/ha (VIOTR [21]; Viola tricolor, 504 h, 5 g/ha) was 90% and the pest or weed control at 20 g/ha (VIOTR [21]; Viola tricolor, 504 h, 20 g/ha) was 100%.

Reference: patent publication US12655116B2, “Substituted isophthalic acid diamides” (Bayer Aktiengesellschaft, priority 2020, dated 2026)
